How the values were obtained:
Parameters in all cases: scale not given: the % may be the effect or the level left
[1] = biological target: Cyclin-Y/Cyclin-dependent kinase 16 (Homo sapiens) (UniProt Q00536+Q8ND76); assay: Inhibition of human CDK16/cyclin Y assessed as enzyme activity at 1 uM using RB Protein as substrate preincubated for 20 mins followed by [gamma-33P]-ATP addition and measured after 120 mins by radiometric Hot-SpotSM Kinase assay relative to control; type: protein-complex assay
[2] = biological target: Insulin receptor (Homo sapiens) (UniProt P06213); assay: Inhibition of human IR assessed as enzyme activity at 1 uM using poly[Glu:Tyr] (4:1) as substrate preincubated for 20 mins followed by [gamma-33P]-ATP addition and measured after 120 mins by radiometric Hot-SpotSM Kinase assay relative to control
Chain of Insulin receptor (Homo sapiens) (P06213 28-758 limits assumed): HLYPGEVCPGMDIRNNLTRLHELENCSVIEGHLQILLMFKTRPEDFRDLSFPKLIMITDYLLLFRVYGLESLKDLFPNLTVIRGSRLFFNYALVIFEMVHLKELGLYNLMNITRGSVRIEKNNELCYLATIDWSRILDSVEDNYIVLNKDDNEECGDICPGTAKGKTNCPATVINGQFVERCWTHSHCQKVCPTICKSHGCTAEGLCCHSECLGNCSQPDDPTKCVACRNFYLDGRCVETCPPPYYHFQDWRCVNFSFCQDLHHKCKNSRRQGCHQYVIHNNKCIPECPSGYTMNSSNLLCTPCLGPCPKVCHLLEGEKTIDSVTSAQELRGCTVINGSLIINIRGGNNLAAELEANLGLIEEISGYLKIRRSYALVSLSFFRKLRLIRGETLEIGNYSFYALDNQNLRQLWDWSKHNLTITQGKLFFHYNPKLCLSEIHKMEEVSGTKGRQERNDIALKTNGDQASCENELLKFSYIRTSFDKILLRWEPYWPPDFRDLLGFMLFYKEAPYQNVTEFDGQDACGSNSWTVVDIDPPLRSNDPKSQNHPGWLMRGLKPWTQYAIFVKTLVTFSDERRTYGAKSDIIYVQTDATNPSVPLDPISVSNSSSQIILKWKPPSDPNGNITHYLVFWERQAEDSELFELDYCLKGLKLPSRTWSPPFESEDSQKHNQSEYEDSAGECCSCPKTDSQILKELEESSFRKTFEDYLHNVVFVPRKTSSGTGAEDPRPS
Chain of Insulin receptor (Homo sapiens) (P06213 763-1382 limits assumed): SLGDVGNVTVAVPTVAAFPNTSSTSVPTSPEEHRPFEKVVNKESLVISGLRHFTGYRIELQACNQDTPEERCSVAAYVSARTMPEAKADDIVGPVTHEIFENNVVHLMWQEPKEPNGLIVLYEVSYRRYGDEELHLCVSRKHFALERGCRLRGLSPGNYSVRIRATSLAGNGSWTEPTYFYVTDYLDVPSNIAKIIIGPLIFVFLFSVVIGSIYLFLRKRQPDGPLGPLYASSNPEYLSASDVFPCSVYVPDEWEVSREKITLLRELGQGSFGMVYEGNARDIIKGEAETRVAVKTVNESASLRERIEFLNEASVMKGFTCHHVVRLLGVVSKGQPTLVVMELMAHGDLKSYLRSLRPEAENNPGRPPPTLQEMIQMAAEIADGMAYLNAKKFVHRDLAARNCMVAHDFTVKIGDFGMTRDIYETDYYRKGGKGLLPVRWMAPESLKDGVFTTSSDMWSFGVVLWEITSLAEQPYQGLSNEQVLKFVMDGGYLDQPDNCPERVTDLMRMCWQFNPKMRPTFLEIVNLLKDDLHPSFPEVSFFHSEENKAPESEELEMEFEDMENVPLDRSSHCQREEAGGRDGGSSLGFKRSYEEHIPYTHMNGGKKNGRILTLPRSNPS

[3] = biological target: T1, Serine/threonine-protein kinase Nek5 (Homo sapiens) (UniProt Q6P3R8); assay: Inhibition of human NEK5 assessed as enzyme activity at 1 uM using myelin basic protein as substrate preincubated for 20 mins followed by [gamma-33P]-ATP addition and measured after 120 mins by radiometric Hot-SpotSM Kinase assay relative to control
T1 sequence (whole entry): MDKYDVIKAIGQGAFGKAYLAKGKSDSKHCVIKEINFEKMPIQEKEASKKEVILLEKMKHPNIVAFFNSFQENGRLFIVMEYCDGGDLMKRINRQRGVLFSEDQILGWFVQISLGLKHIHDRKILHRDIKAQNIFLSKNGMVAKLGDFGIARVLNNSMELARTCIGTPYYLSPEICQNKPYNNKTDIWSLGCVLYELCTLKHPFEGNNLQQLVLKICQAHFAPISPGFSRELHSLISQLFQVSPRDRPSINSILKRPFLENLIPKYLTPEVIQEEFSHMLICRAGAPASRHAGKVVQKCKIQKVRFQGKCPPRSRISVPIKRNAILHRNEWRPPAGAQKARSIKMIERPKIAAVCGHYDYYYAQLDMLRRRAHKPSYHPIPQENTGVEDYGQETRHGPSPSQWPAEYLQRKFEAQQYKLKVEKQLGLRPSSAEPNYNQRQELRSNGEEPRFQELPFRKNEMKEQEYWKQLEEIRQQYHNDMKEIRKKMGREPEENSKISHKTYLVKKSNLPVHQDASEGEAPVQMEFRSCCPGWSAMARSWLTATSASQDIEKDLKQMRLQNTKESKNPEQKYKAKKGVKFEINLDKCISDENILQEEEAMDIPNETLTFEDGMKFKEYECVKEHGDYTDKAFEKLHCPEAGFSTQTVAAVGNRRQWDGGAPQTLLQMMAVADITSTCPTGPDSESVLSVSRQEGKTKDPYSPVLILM

[4] = biological target: T2, Protein kinase C epsilon type (Homo sapiens) (UniProt Q02156); assay: Inhibition of human PKCepsilon assessed as enzyme activity at 1 uM using ERMRPRKRQGSVRRRV as substrate preincubated for 20 mins followed by [gamma-33P]-ATP addition and measured after 120 mins by radiometric Hot-SpotSM Kinase assay relative to control
T2 sequence (whole entry): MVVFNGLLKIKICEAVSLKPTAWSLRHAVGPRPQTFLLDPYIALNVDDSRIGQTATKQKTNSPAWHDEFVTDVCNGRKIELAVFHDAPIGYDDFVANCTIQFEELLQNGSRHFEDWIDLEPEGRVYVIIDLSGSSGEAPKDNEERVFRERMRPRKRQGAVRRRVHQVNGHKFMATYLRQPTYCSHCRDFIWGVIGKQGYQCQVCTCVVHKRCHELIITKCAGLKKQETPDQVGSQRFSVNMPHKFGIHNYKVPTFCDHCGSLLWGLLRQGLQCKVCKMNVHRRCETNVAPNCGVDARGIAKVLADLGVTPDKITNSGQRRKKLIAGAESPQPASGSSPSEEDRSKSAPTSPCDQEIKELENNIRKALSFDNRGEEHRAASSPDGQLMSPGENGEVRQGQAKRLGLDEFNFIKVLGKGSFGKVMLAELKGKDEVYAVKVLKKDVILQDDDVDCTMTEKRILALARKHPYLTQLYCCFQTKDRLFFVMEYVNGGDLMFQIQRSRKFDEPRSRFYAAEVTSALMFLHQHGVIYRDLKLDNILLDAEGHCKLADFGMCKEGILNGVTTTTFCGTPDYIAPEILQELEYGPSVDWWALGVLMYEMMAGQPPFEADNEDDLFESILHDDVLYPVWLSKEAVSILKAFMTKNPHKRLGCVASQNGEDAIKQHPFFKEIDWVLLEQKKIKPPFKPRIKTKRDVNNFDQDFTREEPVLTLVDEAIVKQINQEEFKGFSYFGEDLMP

[5] = biological target: Receptor-interacting serine/threonine-protein kinase 3 (Homo sapiens) (UniProt Q9Y572); assay: Inhibition of human RIPK3 assessed as enzyme activity at 1 uM using myelin basic protein as substrate preincubated for 20 mins followed by [gamma-33P]-ATP addition and measured after 120 mins by radiometric Hot-SpotSM Kinase assay relative to control
Chain of Receptor-interacting serine/threonine-protein kinase 3 (Homo sapiens) (Q9Y572 whole entry, looked up): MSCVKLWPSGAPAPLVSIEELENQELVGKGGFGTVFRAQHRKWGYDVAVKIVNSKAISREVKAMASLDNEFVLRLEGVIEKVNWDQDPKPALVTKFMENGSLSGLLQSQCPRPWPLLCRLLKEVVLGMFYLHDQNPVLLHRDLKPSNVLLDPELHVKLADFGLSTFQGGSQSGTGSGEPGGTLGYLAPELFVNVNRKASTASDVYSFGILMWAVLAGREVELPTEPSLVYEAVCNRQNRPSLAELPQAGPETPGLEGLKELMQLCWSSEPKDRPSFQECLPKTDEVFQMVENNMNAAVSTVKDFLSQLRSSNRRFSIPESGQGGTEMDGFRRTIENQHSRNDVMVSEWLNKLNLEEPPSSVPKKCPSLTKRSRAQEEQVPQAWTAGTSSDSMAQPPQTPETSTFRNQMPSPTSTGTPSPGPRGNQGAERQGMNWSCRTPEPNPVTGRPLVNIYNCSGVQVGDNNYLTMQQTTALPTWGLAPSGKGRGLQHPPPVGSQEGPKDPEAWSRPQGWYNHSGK

[6] = biological target: T3, Tyrosine-protein kinase Tec (Homo sapiens) (UniProt P42680); assay: Inhibition of human TEC assessed as enzyme activity at 1 uM using poly[Glu:Tyr] (4:1) as substrate preincubated for 20 mins followed by [gamma-33P]-ATP addition and measured after 120 mins by radiometric Hot-SpotSM Kinase assay relative to control
T3 sequence (whole entry): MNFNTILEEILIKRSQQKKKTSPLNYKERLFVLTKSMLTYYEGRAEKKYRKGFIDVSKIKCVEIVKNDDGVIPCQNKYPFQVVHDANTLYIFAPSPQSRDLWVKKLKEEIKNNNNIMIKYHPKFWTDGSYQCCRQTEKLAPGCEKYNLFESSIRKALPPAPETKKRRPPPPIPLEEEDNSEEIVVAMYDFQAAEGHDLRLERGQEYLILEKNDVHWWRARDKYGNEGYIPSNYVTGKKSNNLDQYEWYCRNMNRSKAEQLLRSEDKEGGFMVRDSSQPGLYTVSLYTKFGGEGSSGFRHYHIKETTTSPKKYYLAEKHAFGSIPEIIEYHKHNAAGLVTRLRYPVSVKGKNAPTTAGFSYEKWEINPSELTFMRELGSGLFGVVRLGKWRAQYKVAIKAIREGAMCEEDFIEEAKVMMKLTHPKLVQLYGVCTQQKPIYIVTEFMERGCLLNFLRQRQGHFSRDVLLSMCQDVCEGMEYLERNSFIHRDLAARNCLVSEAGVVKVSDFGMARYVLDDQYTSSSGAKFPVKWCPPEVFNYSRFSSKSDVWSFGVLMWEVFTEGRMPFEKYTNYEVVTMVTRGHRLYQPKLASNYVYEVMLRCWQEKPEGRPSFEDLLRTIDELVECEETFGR

Row | Compound | Activity [1] [%] | Activity [2] [%] | Activity [3] [%] | Activity [4] [%] | Activity [5] [%] | Activity [6] [%]
1 | C[C@H](Nc1ncnc2nc[nH]c12)c1cc2cccc(Cl)c2c(=O)n1-c1ccccc1 | 97.7 | 98.2 | 92.8 | 107 | 97.6 | 95.8
2 | CC[C@H](Nc1ncnc2[nH]cnc12)c1nc2cccc(F)c2c(=O)n1-c1ccccc1 | 96.5 | 99.5 | 111 | 108 | 102 | 99.3
3 | CC(C)Oc1ccc(-c2nn([C@@H](C)c3oc4ccc(F)cc4c(=O)c3-c3cccc(F)c3)c3ncnc(N)c23)cc1F [UMBRALISIB] | 98.5 | 99.5 | 110 | 109 | 107 | 98.1

— ChEMBL document CHEMBL5715954, “Silencing c-Myc translation as a therapeutic strategy through targeting PI3Kδ and CK1ε in hematological malignancies” (Blood, 2017)
